ChEMBL document CHEMBL1151301, “Isolation of translactone-containing triterpenes with thrombin inhibitory activities from the leaves of Lantana camara” (J Nat Prod, 1998)

Target: Prothrombin (Homo sapiens, UniProt P00734)
Experiment: Inhibition of human thrombin by fibrinogen-clot assay

Work on `CC(C)=CC(=O)C[C@H]1C(=O)O[C@H]2C[C@]3(C)C4=CC[C@@H]5[C@](C)(CC[C@H]6OC(=O)[C@@]56C)[C@H]4CC[C@@]3(C)[C@@H]21` yielded an IC50 of 50 nM.

Compound `CC(=O)OC[C@]12C[C@@H]3OC(=O)[C@H](CC(=O)C=C(C)C)[C@H]3[C@]1(C)[C@@H](O)C[C@H]1C2=CC[C@@H]2[C@]1(C)CC[C@@H](OC(C)=O)[C@@]2(C)C(=O)O[C@@H]1O[C@H](CO)[C@@H](O)[C@H](O)[C@H]1O` has an IC50 of 70 nM.

Work on `CC(=O)O[C@@H]1CC[C@@]2(C)[C@@H](CC=C3[C@@H]2C[C@H](O)[C@@]2(C)[C@H]4[C@H](C[C@]32C)OC(=O)[C@@H]4CC(=O)C=C(C)C)[C@]1(C)C(=O)O` yielded an IC50 of 90 nM.

`CC(=O)O[C@@H]1CC[C@@]2(C)[C@@H](CC=C3[C@@H]2C[C@H](O)[C@@]2(C)[C@H]4[C@H](C[C@]32CO)OC(=O)[C@@H]4CC(=O)C=C(C)C)[C@]1(C)C(=O)O[C@@H]1O[C@H](CO)[C@@H](O)[C@H](O)[C@H]1O` showed an IC50 of 130 nM.

`CC(=O)O[C@@H]1CC[C@@]2(C)[C@@H](CC=C3[C@@H]2CC[C@@]2(C)[C@H]4[C@H](C[C@]32C)OC(=O)[C@@H]4CC(=O)C=C(C)C)[C@]1(C)C(=O)O` showed an IC50 of 18 nM.
